{"source": "patent US20170050957A1", "about": "“4-AMINO-6-(HETEROCYCLIC)PICOLINATES AND 6-AMINO-2-(HETEROCYCLIC)PYRIMIDINE-4-CARBOXYLATES AND THEIR USE AS HERBICIDES” (Dow AgroSciences LLC, priority 2013, published 2017)", "assay_in_all_cases": "Post-emergent Test I herbicidal activity", "assay_type_in_all_cases": "in vivo", "key": {"wild oats (Avena fatua)": {"tested_on": "wild oats (Avena fatua)", "protocol": "(§1) Post-emergent Test I Seeds test species were obtained from commercial suppliers and planted into a 5″-round pot containing soil-less media mix (metro-mix 360®, Sun Gro Horticulture). Postemergence treatments were planted 8-12 days prior to application and cultured in a greenhouse equipped with supplemental light sources to provide a 16 h photoperiod at 24-29° C. All pots were surface irrigated. Approximately 10 milligrams (mg) of each compound were dissolved in 1.3 mL acetone-DMSO (97:3, v/v) and diluted with 4.1 mL water-isopropanol-crop oil concentrate (78:20:2, v/v/v) containing 0.02% Triton X-155. Treatments were serial diluted with the above formulation solvent to provide 1.85, 0.926, 0.462 and 0.231 mg/mL of test compound delivered in 2.7 mL/pot (roughly equivalent to 4.0, 2.0, 1.0, and 0.5 kg/ha, respectively). Formulated compounds were applied using a DeVilbiss® compressed air sprayer at 2-4 psi. Following treatment, pots were returned to the greenhouse for the duration of the experiment. All pots were sub-irrigated as need to provide optimum growing conditions. All pots were fertilized one time per week by subirrigating with Peters Peat-Lite Special® fertilizer (20-10-20). Phytotoxicity ratings were obtained 10 days after treatment postemergence applications. All evaluations were made visually on a scale of 0 to 100 where 0 represents no activity and 100 represents complete plant death. Visual assessments of plant injury were made based on growth reduction, discoloration, leaf deformity and necrosis"}, "[1]": {"tested_on": "ivyleaf morningglory (Ipomoea hederecea)", "protocol": "as §1"}, "[2]": {"tested_on": "giant foxtail (Setaria faberi)", "protocol": "as §1"}}}
{"compound": "COC(=O)c1nc(-c2ccc3ccn(C)c3c2)c(F)c(N)c1Cl", "note": "[Compound 1.10]", "values": [{"measurement": "Visual Growth Reduction (%) 10 Days After Application AVEFA", "setting": "wild oats (Avena fatua); 3.96 Kg ai/ha", "result": "G (0-29)"}, {"measurement": "Visual Growth Reduction (%) 10 Days After Application IPOHE", "setting": "[1]; 3.96 Kg ai/ha", "result": "F (30-44)"}, {"measurement": "Visual Growth Reduction (%) 10 Days After Application SETFA", "setting": "[2]; 3.96 Kg ai/ha", "result": "G (0-29)"}]}
{"compound": "COC(=O)c1nc(-c2ccc3sccc3c2)cc(N)c1Cl", "note": "[Compound 3.05]", "values": [{"measurement": "Visual Growth Reduction (%) 10 Days After Application AVEFA", "setting": "wild oats (Avena fatua); 4 Kg ai/ha", "result": "C (75-84)"}, {"measurement": "Visual Growth Reduction (%) 10 Days After Application IPOHE", "setting": "[1]; 4 Kg ai/ha", "result": "B (85-94)"}, {"measurement": "Visual Growth Reduction (%) 10 Days After Application SETFA", "setting": "[2]; 4 Kg ai/ha", "result": "A (95-100)"}]}
{"compound": "Nc1c(F)c(-c2cccc3cc[nH]c23)nc(C(=O)O)c1Cl", "note": "[Compound 1.48]", "values": [{"measurement": "Visual Growth Reduction (%) 10 Days After Application AVEFA", "setting": "wild oats (Avena fatua); 4 Kg ai/ha", "result": "G (0-29)"}, {"measurement": "Visual Growth Reduction (%) 10 Days After Application SETFA", "setting": "[2]; 4 Kg ai/ha", "result": "G (0-29)"}]}
